Target: T1, Recombinant human mPGES-1 (Homo sapiens, UniProt O14684)
T1 sequence (O14684 1-152): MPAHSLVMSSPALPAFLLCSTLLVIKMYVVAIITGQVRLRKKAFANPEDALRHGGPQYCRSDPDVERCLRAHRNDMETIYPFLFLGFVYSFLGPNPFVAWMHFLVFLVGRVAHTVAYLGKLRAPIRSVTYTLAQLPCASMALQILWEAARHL
Assay: In-vitro mPGES-1 enzyme inhibition assay (PGE2 formation from PGH2, HTRF detection)
Assay type: biochemical
Details: for inhibition at 1 µM: 1 μM test compound, read-out: Percentage inhibition at 1 μM; for inhibition at 1 µM / inhibition at 10 µM: recombinant human mPGES-1 microsomal fraction; for inhibition at 10 µM: 10 μM test compound, read-out: Percentage inhibition at 10 μM; for IC50: class symbols, selected examples
Excerpt: In-Vitro Protocol for Screening of mPGES-1 Inhibitors: mPGES-1 (microsomal prostaglandin E synthase-1) is a microsomal enzyme that converts endoperoxide substrate PGH2 (prostaglandin H2) to product PGE2 (prostaglandin E2) by isomerization in the presence of reduced glutathione (GSH). mPGES-1 inhibitors were screened by assessing their ability to inhibit formation of PGE2 from PGH2 in presence of mPGES-1 using anti-PGE2 antibody based detection method. […] Assay was set up using crude microsomal fractions at protein concentration of 40-60 μg/mL. […] Final concentration of DMSO in reaction was 0.5% (v/v). Negative controls comprised of all assay reagents except the enzyme. Positive controls comprised of enzyme reaction in the absence of any inhibitor. […] Reaction was stopped by addition of Stannous chloride (11 mg/ml) and PGE2 levels were measured ([…] et al. […] Inhibition of mPGES-1 enzyme activity was measured using percent of reaction occurring in the positive control. Concentration response curves were plotted using percent inhibition of maximum enzyme reaction. IC50 value was calculated from concentration response curve by nonlinear regression analysis using GraphPad PRISM software.

inhibition at 1 µM	inhibition at 10 µM	IC50	Structure (SMILES)
93.1%	89.9%	< 50 nM	CC1(C)Cc2c(c(C(=O)Nc3ccccc3C(F)(F)F)cc3nc(Nc4c(F)cccc4Cl)[nH]c23)O1 [Example-77, 2-[(2-Chloro-6-fluorophenyl)amino]-7,7-dimethyl-N-[2-(trifluoromethyl)phenyl]-7,8-dihydro-1H-furo[3,2-e]benzimidazole-5-carboxamide]
88.5%	96.4%	< 50 nM	CC1(C)Cc2c(c(C(=O)Nc3ccc(Br)cc3)cc3nc(Nc4ccccc4Cl)[nH]c23)O1 [Example-78, N-(4-Bromophenyl)-2-[(2-chlorophenyl)amino]-7,7-dimethyl-7,8-dihydro-1H-furo[3,2-e]benzimidazole-5-carboxamide]
97.4%	91.9%	50 to 100 nM	CC1(C)Cc2c(c(C(=O)Nc3ccccc3C(F)(F)F)cc3nc(Nc4ccccc4Cl)[nH]c23)O1 [Example-79, 2-[(2-Chlorophenyl)amino]-7,7-dimethyl-N-[2-(trifluoromethyl)phenyl]-7,8-dihydro-1H-furo[3,2-e]benzimidazole-5-carboxamide]
93.2%	92%	< 50 nM	CC1(C)Cc2c(c(C(=O)NCc3ccccc3C(F)(F)F)cc3nc(Nc4c(F)cccc4Cl)[nH]c23)O1 [Example-80, 2-[(2-Chloro-6-fluorophenyl)amino]-7,7-dimethyl-N-[2-(trifluoromethyl)benzyl]-7,8-dihydro-1H-furo[3,2-e]benzimidazole-5-carboxamide]
94.1%	97.6%	< 50 nM	CC1(C)Cc2c(c(C(=O)NCc3ccccc3C(F)(F)F)cc3nc(Nc4c(Cl)cccc4Cl)[nH]c23)O1 [Example-82, 2-[(2,6-Dichlorophenyl)amino]-7,7-dimethyl-N-[2-(trifluoromethyl)benzyl]-7,8-dihydro-1H-furo[3,2-e]benzimidazole-5-carboxamide]
87.7%	89.3%	< 50 nM	CC1(C)Cc2c(c(C(=O)NCCc3ccc(Cl)cc3)cc3nc(Nc4c(Cl)cccc4Cl)[nH]c23)O1 [Example-83, N-[2-(4-Chlorophenyl)ethyl]-2-[(2,6-dichlorophenyl)amino]-7,7-dimethyl-7,8-dihydro-1H-furo[3,2-e]benzimidazole-5-carboxamide]
93.7%	94.4%	< 50 nM	CC1(C)Cc2c(c(C(=O)NCc3ccccc3Br)cc3nc(Nc4c(Cl)cccc4Cl)[nH]c23)O1 [Example-84, N-(2-Bromobenzyl)-2-[(2,6-dichlorophenyl)amino]-7,7-dimethyl-7,8-dihydro-1H-furo[3,2-e]benzimidazole-5-carboxamide]
93.3%	95.4%	50 to 100 nM	Cc1cc2c(o1)c(C(=O)NCc1ccccc1C(F)(F)F)cc1nc(Nc3c(Cl)cccc3Cl)[nH]c12 [Example-85, 2-[(2,6-Dichlorophenyl)amino]-7-methyl-N-[2-(trifluoromethyl)benzyl]-1H-furo[3,2-e]benzimidazole-5-carboxamide]
95%	98.7%	< 50 nM	CC1(C)Cc2c(c(C(=O)Nc3ccc(C(F)(F)F)cc3)cc3nc(Nc4ccc(F)cc4Cl)[nH]c23)O1 [Example-86, 2-[(2-Chloro-4-fluorophenyl)amino]-7,7-dimethyl-N-[4-(trifluoromethyl)phenyl]-7,8-dihydro-1H-furo[3,2-e]benzimidazole-5-carboxamide]
87.4%	92.2%	< 50 nM	Cc1ccc(Nc2nc3cc(C(=O)Nc4ccc(C(F)(F)F)cc4)c4c(c3[nH]2)CC(C)(C)O4)c(Cl)c1 [Example-87, 2-[(2-Chloro-4-methylphenyl)amino]-7,7-dimethyl-N-[4-(trifluoromethyl)phenyl]-7,8-dihydro-1H-furo[3,2-e]benzimidazole-5-carboxamide]

Second part, the compound before the results:

Structure (SMILES)	inhibition at 1 µM	inhibition at 10 µM	IC50
CC1(C)Cc2c(c(C(=O)Nc3ccc(C#N)cc3)cc3nc(Nc4c(Cl)cccc4Cl)[nH]c23)O1 [Example-59, N-(4-Cyanophenyl)-2-[(2,6-dichlorophenyl)amino]-7,7-dimethyl-7,8-dihydro-1H-furo[3,2-e]benzimidazole-5-carboxamide]	96.8%	98.1%	< 50 nM
CN(C)CCNC(=O)c1cc2nc(Nc3c(Cl)cccc3Cl)[nH]c2c2c1OC(C)(C)C2 [Example-61, 2-[(2,6-Dichlorophenyl)amino]-N-[2-(dimethylamino)ethyl]-7,7-dimethyl-7,8-dihydro-1H-furo[3,2-e]benzimidazole-5-carboxamide]	6.5%	69.8%	
CC1(C)Cc2c(c(C(=O)NCC(F)(F)F)cc3nc(Nc4c(Cl)cccc4Cl)[nH]c23)O1 [Example-62, 2-[(2,6-Dichlorophenyl)amino]-7,7-dimethyl-N-(2,2,2-trifluoroethyl)-7,8-dihydro-1H-furo[3,2-e]benzimidazole-5-carboxamide]	96.8%	94.3%	
CC1(C)Cc2c(c(C(=O)NCCF)cc3nc(Nc4c(Cl)cccc4Cl)[nH]c23)O1 [Example-63, 2-[(2,6-Dichlorophenyl)amino]-N-(2-fluoroethyl)-7,7-dimethyl-7,8-dihydro-1H-furo[3,2-e]benzimidazole-5-carboxamide]	88%	96.6%	50 to 100 nM
Cc1cc2c(o1)c(C(=O)Nc1ccc(Br)cc1)cc1nc(Nc3c(Cl)cccc3Cl)[nH]c12 [Example-66, N-(4-Bromophenyl)-2-[(2,6-dichlorophenyl)amino]-7-methyl-1H-furo[3,2-e]benzimidazole-5-carboxamide]	96.4%	95.2%	< 50 nM
Cc1cc2c(o1)c(C(=O)Nc1ccccc1F)cc1nc(Nc3c(Cl)cccc3Cl)[nH]c12 [Example-67, 2-[(2,6-Dichlorophenyl)amino]-N-(2-fluorophenyl)-7-methyl-1H-furo[3,2-e]benzimidazole-5-carboxamide]	92.8%	96.2%	
Cc1cc2c(o1)c(C(=O)Nc1cccc(C(F)(F)F)c1)cc1nc(Nc3c(Cl)cccc3Cl)[nH]c12 [Example-68, 2-[(2,6-Dichlorophenyl)amino]-7-methyl-N-[3-(trifluoromethyl)phenyl]-1H-furo[3,2-e]benzimidazole-5-carboxamide]	97.6%	98.5%	
COCCCNC(=O)c1cc2nc(Nc3c(Cl)cccc3Cl)[nH]c2c2c1OC(C)(C)C2 [Example-69, 2-[(2,6-Dichlorophenyl)amino]-N-(3-methoxypropyl)-7,7-dimethyl-7,8-dihydro-1H-furo[3,2-e]benzimidazole-5-carboxamide]	86.2%	98%	< 50 nM
CC1(C)Cc2c(c(C(=O)NCCN3CCOCC3)cc3nc(Nc4c(Cl)cccc4Cl)[nH]c23)O1 [Example-70, 2-[(2,6-Dichlorophenyl)amino]-7,7-dimethyl-N-[2-(morpholin-4-yl)ethyl]-7,8-dihydro-1H-furo[3,2-e]benzimidazole-5-carboxamide]	69.1%	88.2%	
Cc1cc2c(o1)c(C(=O)Nc1ccc(Br)cn1)cc1nc(Nc3c(Cl)cccc3Cl)[nH]c12 [Example-71, N-(5-Bromopyridin-2-yl)-2-[(2,6-dichlorophenyl)amino]-7-methyl-1H-furo[3,2-e]benzimidazole-5-carboxamide]	93.9%	98.4%	< 50 nM
CC1(C)Cc2c(c(C(=O)Nc3ccccc3Br)cc3nc(Nc4c(Cl)cccc4Cl)[nH]c23)O1 [Example-72, N-(2-Bromophenyl)-2-[(2,6-dichlorophenyl)amino]-7,7-dimethyl-7,8-dihydro-1H-furo[3,2-e]benzimidazole-5-carboxamide]	93.2%	93.7%	< 50 nM
CC1(C)Cc2c(c(C(=O)NNc3ccc(Br)cc3)cc3nc(Nc4c(Cl)cccc4Cl)[nH]c23)O1 [Example-74]	93.4%	94.7%	50 to 100 nM
CC1(C)Cc2c(c(C(=O)Nc3ccccc3C(F)(F)F)cc3nc(Nc4c(Cl)cccc4Cl)[nH]c23)O1 [Example-75, 2-[(2,6-Dichlorophenyl)amino]-7,7-dimethyl-N-[2-(trifluoromethyl)phenyl]-7,8-dihydro-1H-furo[3,2-e]benzimidazole-5-carboxamide]	94.8%	95%	< 50 nM
CC1(C)Cc2c(c(C(=O)Nc3c(F)cccc3F)cc3nc(Nc4c(Cl)cccc4Cl)[nH]c23)O1 [Example-76, 2-[(2,6-Dichlorophenyl)amino]-N-(2,6-difluorophenyl)-7,7-dimethyl-7,8-dihydro-1H-furo[3,2-e]benzimidazole-5-carboxamide]	95.8%	99.6%	< 50 nM

— US8519149B2, “Tricyclic compounds as mPGES-1 inhibitors” (Glenmark Pharmaceuticals S.A., priority 2010, dated 2013)
